Like-named read-outs stand apart in the source and are kept apart here.
Experiments:
HCT-116 cells [1] = experiment: Cytotoxicity analysis (MTT/MTS) in HCT-116 colon carcinoma cells; assay type: cell-based, human; details: for IC50: Homo sapiens
Text: Fortunately, 1 was fluorescent with excitation maxima at 250 nm (ε=20,800 cm^−1M^−1), 289 nm (ε=24,000 cm^−1M^−1) and 342 nm (ε=6900 cm^−1M^−1) and a broad emission from 490-680 nm. Using confocal microscopy, red and green fluorescence from 1 appeared in HCT-116 cells within minutes of addition (FIG. 3A). […] Time course confocal imaging studies were then combined with conventional activity MTT assays^6 to provide a detailed correlation between cellular localization and cytostatic activity.
HCT-116 colon carcinoma cells were plated in 96-well plates at 2.5×10^4 cells/well. After 24 h, the cultures were treated with a single concentration seriniquinone (1) within the range of 0.02-20.0 μM, etoposide (positive control) in the range of 0.05-50 μM or 1% DMSO (negative control). The cells were incubated for either 24 h, 48 h or 72 h. At the end of the incubation period, cultures were added with 3-(4,5-dimethylthiazol-2-yl)-5-(3-carboxymethoxyphenyl)-2-(4-sulfophenyl)-2H-tetrazolium (MTS) for 3 h. Cell viability was quantified by the ability of living cells to reduce the yellow MTS dye to a purple formazan product. Time course experiments were also conducted in HCT-116 cells. Cells were exposed to 1 over short periods (1 h, 3 h, 6 h, and 9 h) followed by incubation in drug-free media to complete a total of 24 h incubation before addition of MTS.

[2] = Stability on storage / in solution; assay type: physicochemical
NCI-60 cell line = NCI-60 cell line screen; assay type: cell-based; details: Homo sapiens; mean over NCI-60 panel
Protocol: (§1) This was further supported by the fact that 1 enhanced activity in melanoma cell lines with maximum activity against MALME-3M cells (GI50 value of 60 nM). With this in hand, chemical biological methods were applied to further probe this biological response.

MALME-3M cells = experiment: NCI-60 cell line screen, melanoma line MALME-3M; assay type: cell-based; details: Homo sapiens, maximum activity in the panel
Protocol: as §1

HCT-116 cells [3] = experiment: Western blot analysis of cell cycle, apoptotic and autophagy markers; assay type: cell-based, human
Protocol: HCT-116 cells (1×10^6 cells/mL) were seeded in 75 cm^2 cell culture flasks and, 24 h later, treated with 3 μM 1, 30 μM 1, 17 μM etoposide (positive control), or 0.3% DMSO (negative control). After 24 h incubation, cells were washed in PBS, harvested and lysed in RIPA buffer. Protein extracts were quantified by an adapted micro-method of the Lowry assay using the DC Protein Assay kit (BioRad Laboratories). Equal amounts of protein (30 μg) from each treatment were fractionated using SDS-PAGE 5-15% gel and transferred to a PVDF membrane (BioRad Laboratories). The membranes were incubated overnight at 4° C. with primary antibodies for caspase-3, cleaved caspase-3, caspase 7, cleaved caspase-7, caspase-9, cleaved caspase-9, PARP, cleaved PARP, cyclin A, cyclin B1, cyclin D1, cyclin D3, cyclin D3, cyclin E1, cyclin E2, LC3A, LC3B or dermcidin (Santa Cruz Biotech). β-actin (Abcam) was used to normalize protein loading. After washing with TBS containing 0.1% Tween-20, the membranes were incubated with the appropriate secondary antibody alkaline phosphatase conjugate (Cell Signaling Technology Inc.), followed by BCIP/NBT color development substrate (Perkin-Elmer).

HCT-116 cells [4] = experiment: Cell cycle and DNA fragmentation analysis (FACS / ImageStream); assay type: cell-based, human
Protocol: Cell cycle was analyzed by the ImageStream® cell analysis system (Amnis). Briefly, HCT-116 cells (1×10^5 cells/mL) were seeded in 24-well plates, and 24 h later, 0.3 μM 1, 3 μM 1, 30 μM 1 or 17 μM etoposide (positive control) or 1% DMSO (negative control) was added to the cultures. After 18 h or 24 h incubation, cells were recovered by treatment with 0.05% trypsin-EDTA solution (GIBCO-BRL). An 100 μL aliquot of these cells were incubated for 30 min in the dark with a hypotonic solution containing 50 μg/mL propidium iodide, 0.1% sodium citrate, and 0.1% Triton X-100. Fluorescence was measured and DNA fragmentation and cell cycle were analyzed using ModFit LT for Win32 version 3.1.

DNA = experiment: In vitro DNA fragmentation assays; assay type: biochemical
DCD-1L = experiment: Covalent labeling of DCD-1L peptide (fluorescent band on SDS-PAGE); assay type: binding, human; details: 50 μM; for covalent labeling of DCD-1L: 37° C., 24 h; for fluorescent labeling of DCD-1L fragment: PBS pH 7.2, 5% DMSO, 23° C., 24 h (FIG. 5E)
Text: FIGS. 5A-5E: Seriniquinone (1) targets dermcidin (DCD). […] Sequence listing (FIG. 5B): […] (SEQ ID NO:3); […] (SEQ ID NO:4).
The reactivity between 1 and DCD was then examined. […] These studies now provided initial support for the formation of a unique trimeric covalent adduct, compound 15, between 1, DCD and targeted proteins such as GADPH.

HCT-116 cells [5] = experiment: Confocal microscopy subcellular localization; assay type: cell-based, human; details: confocal imaging with counterstains
Protocol: Confocal studies were conducted on a LSM 710 inverted confocal microscope (Zeiss) with scanning module with 3 detection channels, Plan-Apochromat 63×/1.4 na objective, diode laser (405 nm, CW pulsed, 30 mW), Ar-laser (458 nm, 488 nm, 514 nm, 25 mW), HeNe-laser (543 nm, 1 mW) and HeNe-laser (633 nm, 5 mW). For all procedures, cells were seeded 24 h prior to treatment, to allow for adequate attachment to the well or flask bottom. Cells were plated in glass-bottom dishes (MatTek Corporation) for microscopic analyses at 1×10^5 cells/mL. Compounds were added to cells under 1 mL of media from […] such that the DMSO content remained under 0.1%. […]
Colocalization studies were conducted by treating cells (HCT-116 or MALME-3M) at a density of 1×10^5 cells/cm^2 in a 35 mm glass-bottom dish (MatTek Corporation). […] After 30 min, cells were washed PBS (4×1 mL) and immediately analyzed by confocal microscope. […] The localization of seriniquinone (1) was acquired by red fluorescence with emission at 550-631 nm, while the ER-tracker was acquired by blue florescence with emission at 406-450 nm. […] After 15 min, cells were washed PBS (4×1 mL) and immediately analyzed by confocal microscope. […] The localization of seriniquinone (1) was acquired by red fluorescence with emission at 550-631 nm, while the ER-tracker was acquired by blue florescence with emission at 415-530 nm.

[6] = HCT-116, Table 1, read-out: HCT 116 IC50

SMILES: CC(=O)Oc1ccc2c(=O)c3c(sc4c(=O)c5ccc(OC(C)=O)cc5c(=O)c43)c(=O)c2c1 [p14]
- IC50 (HCT-116 cells [1]; [6]): 2100 nM

SMILES: Oc1c2ccccc2c(O)c2c1sc1c(O)c3ccccc3c(O)c12 [Compound S23]
- stability in solution ([2]; in solution): oxidizes rapidly back to S22a in solution

SMILES: Nc1cccc2c(=O)c3c(sc4c(=O)c5cccc(N)c5c(=O)c43)c(=O)c12 [p20]
- IC50 (HCT-116 cells [1]; [6]): 780 nM

SMILES: O=C(Nc1ccc2c(=O)c3c(sc4c(=O)c5ccc(NC(=O)C(F)(F)F)cc5c(=O)c43)c(=O)c2c1)C(F)(F)F [p12]
- IC50 (HCT-116 cells [1]; [6]): 710 nM

SMILES: O=c1c2cc(O)ccc2c(=O)c2c1sc1c(=O)c3ccc(O)cc3c(=O)c12 [p6]
- IC50 (HCT-116 cells [1]; [6]): 1900 nM

SMILES: Nc1ccc2c(=O)c3c(sc4c(=O)c5ccc(N)cc5c(=O)c43)c(=O)c2c1 [p4]
- IC50 (HCT-116 cells [1]; [6]): 2200 nM

SMILES: O=C(Nc1cccc2c(=O)c3c(sc4c(=O)c5cccc(NC(=O)C(F)(F)F)c5c(=O)c43)c(=O)c12)C(F)(F)F [p23]
- IC50 (HCT-116 cells [1]; [6]): 78 nM

SMILES: O=c1c2cccc(O)c2c(=O)c2c1sc1c(=O)c3c(O)cccc3c(=O)c12 [p21]
- IC50 (HCT-116 cells [1]; [6]): 700 nM

SMILES: O=c1c2ccccc2c(=O)c2c1sc1c(=O)c3ccccc3c(=O)c12 [Compound 1, dinaphtho[2,3-b:2′,3′-d]thiophene-5,7,12,13-tetraone]
- GI50 (NCI-60 cell line): 910 nM
- LC50 (concentration giving 50% cell kill) (NCI-60 cell line): 18600 nM
- GI50 (MALME-3M cells): 60 nM
- IC50 (HCT-116 cells [1]; [6]): 350 nM
- IC50 (HCT-116 cells [1]; HCT-116 cells treated over 24 h period, MTT assay, read-out: IC50): 640 ± 60 nM
- cleavage of caspases and PARP (HCT-116 cells [3]; HCT-116 cells): induced cleavage of caspases 3, 7 and 9 PARP
- induction of autophagy (LC3A/LC3B conversion, Western blot) (HCT-116 cells [3]; HCT-116 cells, 24 h): induced autophagy
- cyclin expression (HCT-116 cells [3]; HCT-116 treated cells): strong reduction in the expression of the cyclins D1, D2 and D3
- DNA fragmentation (cells with subdiploid DNA) (HCT-116 cells [4]): concentration dependent DNA fragmentation
- cell cycle phase of remaining cells (HCT-116 cells [4]): S to G2 phase
- DNA fragmentation in vitro (DNA): failed to induce DNA fragmentation
- covalent labeling of DCD-1L (DCD-1L): covalently label DCD-1L
- fluorescent labeling of DCD-1L fragment (DCD-1L): fluorescent bands corresponding to DCD-1L
- subcellular localization (HCT-116 cells [5]): appeared soon after treatment in the ER

SMILES: O=C(O)CCc1ccc2c(=O)c3c(sc4c(=O)c5ccccc5c(=O)c43)c(=O)c2c1 [acid 11, 3-(5,7,12,13-Tetraoxo-5,7,12,13-tetrahydrodinaphtho[2,3-b:2′,3′-d]-thiophen-3-yl)-propanoic acid]
- covalent labeling of DCD-1L (DCD-1L): covalently label DCD-1L

SMILES: CC(C)=CCCc1ccc2c(=O)c3c(sc4c(=O)c5ccccc5c(=O)c43)c(=O)c2c1 [alkene 10, 3-(4-Methylpent-3-en-1-yl)dinaphtho[2,3-b:2′,3′-d]thiophene-5,7,12,13-tetraone]
- covalent labeling of DCD-1L (DCD-1L): covalently label DCD-1L
- fluorescent labeling of DCD-1L fragment (DCD-1L): fluorescent bands corresponding to DCD-1L
- storage stability of pure material ([2]; 1 month at −20° C.): significant decomposition

SMILES: O=c1c2ccccc2c(=O)c2sc3c(=O)c4ccccc4c(=O)c3sc12 [p2]
- HCT 116 IC50, μM (HCT-116 cells [1]; Table 1): NSA

SMILES: O=c1c2cc(Cl)ccc2c(=O)c2c1sc1c(=O)c3ccc(Cl)cc3c(=O)c12 [p9]
- IC50 (HCT-116 cells [1]; [6]): 550 nM

Source: US9481662B2, “Seriniquinones, melanoma-specific anticancer agents” (The Regents of the University of California, priority 2012, dated 2016)
